# Results as given in patent publication US8221736B2, “Semiochemical” (Rothamsted Research Limited, priority 1999, dated 2012).
# What was measured:
# [1] = tested on: lettuce aphid Nasonovia ribis-nigri; experiment: 4-way olfactometer behavioural assay with alate lettuce aphids; type: in vivo; conditions: 1 μg in hexane on filter paper, 10 min, P<0.05
# Description: Behavioural assays were done in a Perspex™ olfactometer similar to that described in J. Entomol. Scand. 1, 63-73 (1970) (Pettersson), with a weak airstream directed towards the centre from each of 4 side arms. The test compound (1 μg) in hexane (10 μl) was placed on filter paper (Whatman No. 1) at the end of one of the side arms, with hexane alone used as a control in the other arms. One alate virginopara of N. ribis-nigri was placed in the centre of the arena and its movements observed over 10 min. The apparatus, maintained at 24° C., was lit from above by fluorescent tubing and was rotated 90° every 2.5 min to avoid any directional bias. The experiment was replicated 6 times and results analysed by Student's t-test.
# [2] = tested on: cereal aphids (predominantly Metropolophium dirhodum) on winter wheat, Triticum aestivum; experiment: Field study of cereal aphids on sprayed winter wheat plots; type: in vivo; conditions: sprayed 50 g a.i./ha on 5 May and 11 Jun. 1999
# Source text: The data have been transformed back from the logs to ease presentation. […] The predominant aphid species was Metropolophium dirhodum, the rose-grain aphid. S. avenae and Rhopalosiphum padi were also present, but numbers were very low. […] Plots (6 m×6 m) of winter wheat, Triticum aestivum (cv Consort), were arranged in a 5×5 quasi-complete Latin square design. The five cis-jasmone treated plots were sprayed on 5 May and 11 Jun. 1999, using a hand-held hydraulic device, at a rate of 50 g active ingredient/ha in 200 l/ha of aqueous […] BV (0.1%). Control plots were untreated. […] At each count, five tillers were inspected at 12 separate sites on two diagonal transects totalling 60 tillers per plot. Transformed data (y=log(y+1)) were subjected to ANOVA and the sums of squares of the treatments were partitioned to test for significant differences.
# [3] = tested on: broad bean, V. faba (cv The Sutton); experiment: Induction of volatile release by bean plants (air entrainment, GC/GC-MS); type: in vivo, Vicia faba; conditions: 24 hour exposure at 100 μg/l in air; from some replicates
# Description: A possible role for the compound as an airborne plant signal was investigated using the broad bean, V. faba (cv The Sutton). Plants were kept for 24 hours in clean air or in air incorporating cis-jasmone at 100 μg/l; subsequently, samples of volatiles released by the plants were obtained by entrainment over 4 periods of 48 hours, i.e. up to 192 hours after the end of the treatment. The cis-jasmone itself was undetectable after 48 hours. […] There was also, from some replicates, enhancement of (E,E)-α-farnesene, (−)-β-caryophyllene and (E)-4,8-dimethyl-1,3,7-nonatriene. These compounds have all been implicated in herbivorous insect-induced production and increased parasitoid foraging. The nonatriene can also be produced innately by plants imitating damage for defence against herbivores and which are thus attractive to parasitoids.
# Bean plants, V. faba (cv The Sutton) were grown under standard glasshouse conditions until the 2-4 leaf stage when they were rinsed free of soil and transplanted into baked glass jars containing washed sand, with 3 plants per jar. These were left for 1-2 days to acclimatize. Plants to be treated (three jars of three plants each) were sealed in a 25 l glass tank for 24 hours with either cis-jasmone or methyl jasmonate (2.5 mg) applied to a piece of filter paper (Whatman No. 1) placed on the floor of the tank. […]
# [4] = tested on: D251 sequence in Vicia faba plants; experiment: Differential display and northern blot of gene-specific sequence D251; type: in vivo; conditions: northern blot, versus air
# Description: Total RNA was isolated from stem or leaf tissue of plants exposed to air, methyl jasmonate or cis-jasmone. 10 μg RNA per sample was loaded and separated on a formaldehyde gel (Panel A). The samples were then transferred to a nylon membrane and probed with the D251 sequence (Panel B). Lane 1=air treatment (control); lane 2=cis-jasmone treatment; lane 3=methyl jasmonate treatment. In the case of RNA isolated from leaf tissue, only cis-jasmone treatment results in upregulation. In order to determine if cis-jasmone was capable of inducing alterations in plant gene expression, the sensitive technique of differential display was carried out on RNA extracted from plants which had been exposed to air, methyl jasmonate or cis-jasmone. […] To confirm this observation, bands of interest were recovered by excision from the dried gel and re-amplified with the appropriate pair of oligonucleotide primers. The resulting PCR products were cloned and sequenced to confirm the homogeneous nature of the amplified product. These sequences were then used to probe RNA isolated from control or treated V. faba plants. […] It is important to note that the nature of the differential display technique generates short gene-specific probes, containing mainly 3′ untranslated regions of transcribed sequences, and therefore the functional part of the differentially expressed gene is unknown. Thus, using differential display and confirmatory northern blotting, we have shown that methyl jasmonate and cis-jasmone have apparently distinct effects on plant gene expression. […] Thus, the two compounds have distinct effect on plant gene expression and the response to these signalling compounds may be tissue-specific.
# adult Lepidoptera = conditions: U.S. Pat. No. 5,665,344; cited from earlier work
smiles,measurement,setting,value
CC/C=C\CC1=C(C)CCC1=O [cis-jasmone],mean number of entries into the treated arm,"[1]; 6 replicates, control arms 4.3±0.58",2.0±0.58
same,mean time spent in the treated arm,[1]; control arms 2.1±0.36 minutes,0.5 ± 0.16 min
same,"numbers of parasitized aphids, treated versus untreated plots",[2],no significant difference
same,"numbers of cereal aphids per 60 tillers, treated versus untreated plots","[2]; five sampling dates, significant on last two dates",consistently lower
same,"release of (E,E)-α-farnesene, (−)-β-caryophyllene and (E)-4,8-dimethyl-1,3,7-nonatriene",[3],enhancement
same,expression of D251 sequence in leaf tissue,[4]; RNA from leaf tissue of plants exposed to vapour,upregulated
same,expression of D251 sequence in stem tissue,[4]; RNA from stem tissue of plants exposed to vapour,upregulated to a similar level
same,behavioural effect on adult Lepidoptera,adult Lepidoptera,attract adult Lepidoptera
